According to US9890175B2, “Taxane compound, and preparation method and use thereof” (JIANGSU TASLY DIYI PHARMACEUTICAL CO., LTD., priority 2013, dated 2018):
Read-outs that look alike come from different tables or passages of the source.

Assays:
K562 leukemia = test: MTT proliferation inhibition, K562; assay type: cell-based; settings: Homo sapiens, K562, read-out: Proliferation inhibition rate, K562 Leukemia
Excerpt: (§1) 1. Cytotoxicity Assay Using Human Tumor Cell Lines
(§2) Paclitaxel was used as the positive drug.

BGC-823 gastric cancer = test: MTT proliferation inhibition, BGC-823; assay type: cell-based; settings: Homo sapiens, BGC-823, read-out: Proliferation inhibition rate, BGC-823 Gastric cancer
Excerpt: as §1, §2

[1] = test system: NCI-H460 non-small cell lung cancer; test: MTT proliferation inhibition, NCI-H460; assay type: cell-based; settings: Homo sapiens, NCI-H460, read-out: Proliferation inhibition rate, NCI-H460 Non-small cell lung cancer
Excerpt: as §1, §2

LN-18 = test: MTT proliferation inhibition, LN-18; assay type: cell-based; settings: Homo sapiens, LN-18, read-out: Proliferation inhibition rate, LN-18 Gastric canser
Excerpt: as §1, §2

[2] = test system: breast cancer cell line MCF-7; test: IC50 on breast cancer cell line MCF-7; assay type: cell-based; settings: Homo sapiens, MCF7, 72 h, read-out: MCF-7 (IC50, nM)
Description: From the activity evaluation data of the above-mentioned preliminary screen, it can be seen that the series of taxanes derivatives synthesized in the present invention have activity. Afterward, the compounds are investigated to examine their IC50 values on breast cancer cell line MCF-7. […] Experiments for each compound were independently repeated for three times and multiple holes were used in each experiment. The exposure time of drugs was 72 hours.

HT-29 colon cancer = test: MTT proliferation inhibition, HT-29; assay type: cell-based; settings: Homo sapiens, HT-29, read-out: Proliferation inhibition rate, HT29 Colon cancer
Excerpt: as §1, §2

Hela cervical cancer = test: MTT proliferation inhibition, HeLa; assay type: cell-based; settings: Homo sapiens, read-out: Proliferation inhibition rate, HeLa Uterin cancer
Excerpt: as §1, §2

A2780 ovarian cancer = test: MTT proliferation inhibition, A2780; assay type: cell-based; settings: Homo sapiens, A2780, read-out: Proliferation inhibition rate, A2780 Ovarian cancer
Excerpt: as §1, §2

LNCaP prostate cancer = test: MTT proliferation inhibition, LNCaP; assay type: cell-based; settings: Homo sapiens, read-out: Proliferation inhibition rate, LNCaP Prostate cancer
Excerpt: as §1, §2

B16 melanoma = test: MTT proliferation inhibition, B16; assay type: cell-based; settings: B16, read-out: Proliferation inhibition rate, B16 Melanoma
Excerpt: as §1, §2

A375 melanoma = test: MTT proliferation inhibition, A375; assay type: cell-based; settings: Homo sapiens, A-375, read-out: Proliferation inhibition rate, A375 Melanoma
Excerpt: as §1, §2

HL-60 leukemia = test: MTT proliferation inhibition, HL-60; assay type: cell-based; settings: Homo sapiens, HL-60, read-out: Proliferation inhibition rate, HL60 Leukemia
Excerpt: as §1, §2

[3] = Caco-2 cell monolayer membrane transport assay (Papp and recovery); assay type: in vitro ADME; settings: human, Caco-2, Caco-2, A-B
Description: Caco-2 Cell Monolayer Membrane Transport Assay
Human-derived colorectal adenocarcinoma cell line Caco-2 cell monolayer model was used to study the bidirectional transport of the target compounds from the apical (AP) side to the basolateral (BL) side and from BL side to AP side. HPLC was used for quantitative analysis to calculate transport parameters, apparent permeability coefficient (Papp) and the efflux ratio.

[4] = test system: MDA-MB-436 breast cancer cells; test: MTT proliferation inhibition, MDA-MB-436; assay type: cell-based; settings: Homo sapiens, MDA-MB-436, read-out: Proliferation inhibition rate, MDA-MB-436 Breast cancer
Excerpt: as §1, §2

Du145 prostate cancer = test: MTT proliferation inhibition, Du145; assay type: cell-based; settings: Homo sapiens, DU-145, read-out: Proliferation inhibition rate, DU145 Prostate cancer
Excerpt: as §1, §2

[5] = test system: A549 non-small cell lung cancer; test: MTT proliferation inhibition, A549; assay type: cell-based; settings: Homo sapiens, A549, read-out: Proliferation inhibition rate, A549 Non-small cell lung cancer
Excerpt: as §1, §2

HCT 116 colon cancer = test: MTT proliferation inhibition, HCT 116; assay type: cell-based; settings: Homo sapiens, HCT-116, read-out: Proliferation inhibition rate, HCT 116 Colon cancer
Excerpt: as §1, §2

[6] = test system: MCF-7 breast cancer cells; test: MTT proliferation inhibition, MCF-7; assay type: cell-based; settings: Homo sapiens, MCF7, read-out: Proliferation inhibition rate, MCF-7 Breast cancer
Excerpt: as §1, §2

[7] = Mean, read-out: Recovery rate in mass, Mean
[8] = Sample-01, read-out: Papp A-B, Sample-01
[9] = Sample-01, read-out: Recovery rate in mass, Sample-01
[10] = Sample-02, read-out: Papp A-B, Sample-02
[11] = Sample-02, read-out: Recovery rate in mass, Sample-02

SMILES	inhibition at 1 µM (K562 leukemia) [%]	inhibition at 1 µM (BGC-823 gastric cancer) [%]	inhibition at 1 µM [1] [%]	inhibition at 1 µM (LN-18) [%]	IC50 [2] [nM]	inhibition at 1 µM (HT-29 colon cancer) [%]	inhibition at 1 µM (Hela cervical cancer) [%]	inhibition at 1 µM (A2780 ovarian cancer) [%]	inhibition at 1 µM (LNCaP prostate cancer) [%]	inhibition at 1 µM (B16 melanoma) [%]	inhibition at 1 µM (A375 melanoma) [%]	inhibition at 1 µM (HL-60 leukemia) [%]	recovery [3, 7] [%]	Papp A→B [3, 8] [×10⁻⁶ cm/s]	recovery [3, 9] [%]	Papp A→B [3, 10] [×10⁻⁶ cm/s]	recovery [3, 11] [%]	inhibition at 1 µM [4] [%]	inhibition at 1 µM (Du145 prostate cancer) [%]	inhibition at 1 µM [5] [%]	further results
CO[C@H]1C(=O)[C@]2(C)[C@@H](OC(=O)N(C)C)C[C@H]3OC[C@@]3(OC(C)=O)[C@H]2[C@H](OC(=O)c2ccccc2)[C@]23OC(=O)O[C@H]2[C@H](OC(=O)[C@H](O)[C@@H](NC(=O)OC(C)(C)C)c2ccccn2)C(C)=C1C3(C)C [PCMI-15]	93.2	95	86	95.7	18.2 ± 0.24	88.7	101	95.7	86.7	80.8	97.9	97.8	79.3	2.14	83.7	2.78	74.8	82	90.8	74.6	inhibition at 1 µM (HCT 116 colon cancer): 68.3%; inhibition at 1 µM [6]: 95.5%
CO[C@H]1C(=O)[C@]2(C)[C@@H](OC(=O)N(C)C)C[C@H]3OC[C@@]3(OC(C)=O)[C@H]2[C@H](OC(=O)c2ccccc2)[C@]23OC(=O)O[C@H]2[C@H](OC(=O)[C@H](O)[C@H](CC(C)C)NC(=O)OC(C)(C)C)C(C)=C1C3(C)C [PCMI-16]	95	95.3	87.2	95.2	21.17 ± 0.21	89.2	102	96.1	86.8	83.1	96.3	97.8	33.1	1.41	32.7	1.87	33.5	81.2	91.4	74.7	Papp A→B ([3]; Mean, read-out: Papp A-B, Mean): 1.64 ×10⁻⁶ cm/s; inhibition at 1 µM (HCT 116 colon cancer): 67.1%; inhibition at 1 µM [6]: 97.2%
COC(=O)O[C@H]1C[C@H]2OC[C@@]2(OC(C)=O)[C@H]2[C@H](OC(=O)c3ccccc3)[C@]34OC(=O)O[C@H]3[C@H](OC(=O)[C@H](O)[C@@H](NC(=O)OC(C)(C)C)c3ccccn3)C(C)=C([C@@H](OC)C(=O)[C@]12C)C4(C)C [PCMI-18]	94.5	94.3	88.6	94.7	4.12 ± 0.16	85.2	98.8	95.7	84.6	81.2	95.1	97.8	88.3	2.65	85.6	2.33	90.9	82.3	89.7	78.7	Papp A→B ([3]; Mean, read-out: Papp A-B, Mean): 2.49 ×10⁻⁶ cm/s; inhibition at 1 µM (HCT 116 colon cancer): 68.3%; inhibition at 1 µM [6]: 96.2%
CCSC(=O)O[C@H]1C[C@H]2OC[C@@]2(OC(C)=O)[C@H]2[C@H](OC(=O)c3ccccc3)[C@]34OC(=O)O[C@H]3[C@H](OC(=O)[C@H](O)[C@@H](NC(=O)OC(C)(C)C)c3ccccc3)C(C)=C([C@@H](OC)C(=O)[C@]12C)C4(C)C [PCMI-21]	95	93.3	85.5	94.7	3.46 ± 0.16	87.7	99.5	96.4	87.4	75.8	96.7	96.5	72	2.32	76.6	2.58	67.5	83.1	90.6	74.9	Papp A→B ([3]; Mean, read-out: Papp A-B, Mean): 2.45 ×10⁻⁶ cm/s; inhibition at 1 µM (HCT 116 colon cancer): 70.1%; inhibition at 1 µM [6]: 88.7%
